We go through 14 compounds from patent US11834450B2, “Compounds having ((3-nitrophenyl)sulfonyl)acetamide as BCL-2 inhibitors” (Eil Therapeutics, Inc., priority 2021, dated 2023).

The IC50 is the concentration that gives 50% inhibition. As a reminder, the CC50 is the concentration giving 50% cytotoxicity.

Data set [1] concerns the target T1, BCL-XL (Homo sapiens, UniProt Q07817).
T1 construct: purchased BPS Bioscience #50223
Kind of data set: BCL-XL TR-FRET Assay (primary PPI inhibition). It is filed as binding. The following applies: 60 min incubation; read-out: BCLxL (IC50 code, BCL-XL TR-FRET). The protocol:
BCL-XL TR-FRET Assay (BPS Bioscience, #50223) Assay Condition: The following assay concentrations and times were used: 10.5 ng BCL-XL, 5 ul of 1:100 anti-His Tb-labeled donor, 5 ul of 1:100 Dye-labeled acceptor, 5 ul of 1:80 BCL-XL Peptide Ligand, and 2 ul of test compound, with 60 min incubation time. The results of the assay were read using a Clariostar (BMG Labtech) plate reader with the following parameters: TR FRET, 340 ex/620 and 665 em; 60 μsec Delay; and 500 μsec integration.
(In general: Time-resolved FRET reads energy transfer from a long-lived donor to a nearby acceptor.)

For data set [2], the target named is T2, BCL-2 (Homo sapiens, UniProt P10415).
T2 construct: purchased BPS Bioscience #50222
Kind of data set: BCL-2 TR-FRET Assay (primary PPI inhibition). It is filed as binding. Particulars: 60 min incubation; read-out: BCL2 (IC50 code, BCL-2 TR-FRET).

A short description of data set [3]: Cell viability assay HEK293 (CellTiter-Glo). The data set is classed as cell-based. The following applies: human, HEK293 cells, read-out: HEK293 (CC50 code). The protocol: (§1) Assay Condition: Used culture medium for HEK293-DMEM (PanEco, Cat #C420), for the rest of the cell lines—culture medium RPMI-1640 (PanEco, Cat #C363).
(§2) Assay Procedure: Compounds were prepared as 200× stocks with serial dilution in 100% DMSO with a final concentration of 1×. Dispersed 40 μl in 384-well plates at a concentration of 2000 cells per well for HEK293 and at a concentration of 4000 cells per well for the rest of the cell lines using a robotic station Biomek (Beckman). Before adding compounds, the cells were incubated at 37° C. (HEK293 were incubated for a day before adding compounds).
(§3) A dilution plate was prepared by pouring 78 μl of the appropriate culture medium using a robotic station Biomek (Beckman). Sequentially, using a robotic station, 2 μl of substances were taken and added to 78 μl of culture medium (dilution of compounds 40×). Took from there 10 μl and added to the plates to the cells (dilution of compounds 5×). The plates were incubated for 3 days at a temperature 37° C. After 3 days, 10 μl of CellTiter-Glo (Promega) was added to the cells and the luminescence was measured.
A general note: In ATP-based viability assays light output follows the ATP content of the culture.

In data set [4] the test system is MOLT-4 cells. Kind of data set: Cell viability assay MOLT-4 (CellTiter-Glo). It is filed as cell-based. Particulars: Homo sapiens, read-out: MOLT-4 (CC50 code). On the procedure: as §1, §2, §3
Data set [5] concerns RS4-11 cells. Kind of data set: Cell viability assay RS4-11 (CellTiter-Glo). The data set is classed as cell-based. The following applies: Homo sapiens, read-out: RS4-11 (CC50 code). On the procedure: as §1, §2, §3
Setting [6] is: 72 h, MOLT-4 cells, 3 days, CellTiter-Glo.
[7] abbreviates: 72 h, RS4-11 cells, 3 days, CellTiter-Glo.

Like-named read-outs stand apart in the source and are kept apart here. A value given as a limit tells only on which side of the number the result lay.

T2 sequence (P10415 whole entry): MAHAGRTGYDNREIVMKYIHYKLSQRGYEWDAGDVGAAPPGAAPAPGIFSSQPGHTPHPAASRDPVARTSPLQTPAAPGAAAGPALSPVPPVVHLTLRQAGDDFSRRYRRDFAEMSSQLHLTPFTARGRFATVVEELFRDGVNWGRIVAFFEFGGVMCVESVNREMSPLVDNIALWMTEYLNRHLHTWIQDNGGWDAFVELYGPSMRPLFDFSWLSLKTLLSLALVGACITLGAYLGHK
T1 sequence (Q07817 whole entry): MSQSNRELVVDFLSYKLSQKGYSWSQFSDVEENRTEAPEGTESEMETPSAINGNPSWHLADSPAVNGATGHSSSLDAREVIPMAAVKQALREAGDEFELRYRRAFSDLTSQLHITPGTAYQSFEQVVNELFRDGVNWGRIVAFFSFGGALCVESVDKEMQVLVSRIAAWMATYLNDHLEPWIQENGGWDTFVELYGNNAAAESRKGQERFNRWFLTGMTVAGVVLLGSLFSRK

Regarding `O=C(NS(=O)(=O)c1ccc(NCC2CCOCC2)c([N+](=O)[O-])c1)c1ccc(N2CCC(CN3C(=O)C4(CCCC4)C3c3ccc(Cl)cc3)CC2)cc1Oc1cnc2[nH]ccc2c1` (stereo not drawn) [Compound 1, 4-[4-[[1-(4-chlorophenyl)-3-oxo-2-azaspiro[3.4]octan-2-yl]methyl]-1-piperidyl]-N-[3-nitro-4-(tetrahydropyran-4-ylmethylamino)phenyl]sulfonyl-2-(1H-pyrrolo[2,3-b]pyridin-5-yloxy)benzamide], the IC50 in data set [1] was more than 4 µM; in data set [2], 0.01 to 0.05 µM. In addition, the CC50 at 3 days in data set [3] is more than 25 µM. For the same compound, the CC50 in data set [4] (setting [6]) was 2 to 10 µM; in data set [5] (setting [7]), more than 0.2 µM.
On to `O=C(NS(=O)(=O)c1ccc(NCC2CCOCC2)c([N+](=O)[O-])c1)c1ccc(N2CCC(CN3C(=O)C4(CCCC4)C3c3ccc(Cl)cc3)CC2)cc1Oc1ccc2[nH]ccc2c1` (stereo not drawn) [Compound 10, 4-[4-[[1-(4-chlorophenyl)-3-oxo-2-azaspiro[3.4]octan-2-yl]methyl]-1-piperidyl]-2-(1H-indol-5-yloxy)-N-[3-nitro-4-(tetrahydropyran-4-ylmethylamino)phenyl]sulfonyl-benzamide], for which the IC50 in data set [2] was more than 0.05 µM. Moreover, the half-maximal cytotoxic concentration (CC50) at 3 days in data set [3] was not above 10 µM. In addition, the CC50 in data set [4] (MOLT-4, 72 h) is more than 10 µM; in data set [5] (RS4-11, 72 h) it was more than 0.2 µM.
Regarding `O=C(NS(=O)(=O)c1ccc(NCC2CCOCC2)c([N+](=O)[O-])c1)c1ccc(N2CCN(C(c3ccccc3)c3ccc(F)cc3)CC2)cc1Oc1ccc2[nH]ccc2c1` (stereo not drawn) [Compound 12, 4-[4-[(4-fluorophenyl)-phenyl-methyl]piperazin-1-yl]-2-(1H-indol-5-yloxy)-N-[3-nitro-4-(tetrahydropyran-4-ylmethylamino)phenyl]sulfonyl-benzamide], the IC50 in data set [1] is more than 4 µM; in data set [2], more than 0.05 µM. Also, the CC50 at 3 days in data set [3] was more than 25 µM. Further, the CC50 in data set [4] (setting [6]) is more than 10 µM; in data set [5] (setting [7]), more than 0.2 µM.
In the case of `O=C(NS(=O)(=O)c1ccc(NCC2CCOCC2)c([N+](=O)[O-])c1)c1ccc(N2CCN(C(c3ccccc3)c3ccc(Cl)cc3)CC2)cc1Oc1ccc2[nH]ccc2c1` (stereo not drawn) [Compound 14, 4-[4-[(4-chlorophenyl)-phenyl-methyl]piperazin-1-yl]-2-(1H-indol-5-yloxy)-N-[3-nitro-4-(tetrahydropyran-4-ylmethylamino)phenyl]sulfonyl-benzamide], the IC50 in data set [2] was more than 0.05 µM.
In the case of `CCCC(c1ccc(Br)cc1)N1CCN(c2ccc(C(=O)NS(=O)(=O)c3ccc(NCC4CCOCC4)c([N+](=O)[O-])c3)c(Oc3ccc4[nH]ccc4c3)c2)CC1` (stereo not drawn) [Compound 15, 4-[4-[1-(4-bromophenyl)butyl]piperazin-1-yl]-2-(1H-indol-5-yloxy)-N-[3-nitro-4-(tetrahydropyran-4-ylmethylamino)phenyl]sulfonyl-benzamide], the IC50 in data set [1] is more than 4 µM; in data set [2], more than 0.05 µM.
On to `O=C(NS(=O)(=O)c1ccc(NCC2CCOCC2)c([N+](=O)[O-])c1)c1ccc(N2CCN(C(c3ccc(F)cc3)c3ccc(F)cc3)CC2)cc1Oc1ccc2[nH]ccc2c1` [Compound 16, 4-[4-[bis(4-fluorophenyl)methyl]piperazin-1-yl]-2-(1H-indol-5-yloxy)-N-[3-nitro-4-(tetrahydropyran-4-ylmethylamino)phenyl]sulfonyl-benzamide], for which the half-inhibitory concentration (IC50) in data set [1] is more than 4 µM; in data set [2], more than 0.05 µM. The CC50 at 3 days in data set [3] is more than 25 µM. Moreover, the CC50 in data set [4] (setting [6]) was more than 10 µM; in data set [5] (setting [7]), more than 0.2 µM.
Regarding `O=C(NS(=O)(=O)c1ccc(NCC2CCOCC2)c([N+](=O)[O-])c1)c1ccc(N2CCN(C(c3ccccc3)c3ccccc3)CC2)cc1Oc1cnc2[nH]ccc2c1` [Compound 17, 4-(4-benzhydrylpiperazin-1-yl)-N-[3-nitro-4-(tetrahydropyran-4-ylmethylamino)phenyl]sulfonyl-2-(1H-pyrrolo[2,3-b]pyridin-5-yloxy)benzamide], the results for the IC50 in data set [1] and in data set [2] were more than 4 µM and more than 0.05 µM, respectively. The half-maximal cytotoxic concentration (CC50) at 3 days in data set [3] was more than 25 µM. Also, the CC50 in data set [4] (setting [6]) was more than 10 µM; in data set [5] (setting [7]) it was more than 0.2 µM.
As to `O=C(NS(=O)(=O)c1ccc(NCC2CCOCC2)c([N+](=O)[O-])c1)c1ccc(N2CCN(C(c3ccccc3)c3ccccc3)CC2)cc1Oc1ccc2[nH]ccc2c1` [Compound 19, 4-(4-benzhydrylpiperazin-1-yl)-2-(1H-indol-5-yloxy)-N-[3-nitro-4-(tetrahydropyran-4-ylmethylamino)phenyl]sulfonyl-benzamide], the values for the IC50 in data set [1] and in data set [2] were more than 4 µM and more than 0.05 µM, respectively. In data set [3], the CC50 at 3 days is more than 25 µM. The CC50 in data set [4] (setting [6]) was more than 10 µM; in data set [5] (setting [7]) it was more than 0.2 µM.
Regarding `O=C(NS(=O)(=O)c1ccc(NCC2CCOCC2)c([N+](=O)[O-])c1)c1ccc(N2CCC(CN3CC4(CCCC4)C3c3ccccc3)CC2)cc1Oc1cnc2[nH]ccc2c1` (stereo not drawn) [Compound 27, N-[3-nitro-4-(tetrahydropyran-4-ylmethylamino)phenyl]sulfonyl-4-[4-[(3-phenyl-2-azaspiro[3.4]octan-2-yl)methyl]-1-piperidyl]-2-(1H-pyrrolo[2,3-b]pyridin-5-yloxy)benzamide], the IC50 is 2 to 4 µM in data set [1] and more than 0.05 µM in data set [2]. Besides, the CC50 at 3 days in data set [3] was more than 25 µM. Besides, the CC50 is 2 to 10 µM in data set [4] (MOLT-4, 72 h) and more than 0.2 µM in data set [5] (RS4-11, 72 h).
Take `O=C(NS(=O)(=O)c1ccc(NCC2CCOCC2)c([N+](=O)[O-])c1)c1ccc(N2CCN(C[C@H]3Cc4ccccc4CN3C(=O)c3cccs3)CC2)cc1Oc1cnc2[nH]ccc2c1` [Compound 34, N-[3-nitro-4-(tetrahydropyran-4-ylmethylamino)phenyl]sulfonyl-2-(1H-pyrrolo[2,3-b]pyridin-5-yloxy)-4-[4-[[(3R)-2-(thiophene-2-carbonyl)-3,4-dihydro-1H-isoquinolin-3-yl]methyl]piperazin-1-yl]benzamide]: the IC50 in data set [1] lay within 2 to 4 µM; in data set [2] it was 0.01 to 0.05 µM.
On to `CC1=CC[C@@H](c2ccc(Cl)cc2)[C@H](CN2CCN(c3ccc(C(=O)NS(=O)(=O)c4ccc(NCC5CCOCC5)c([N+](=O)[O-])c4)c(Oc4cnc5[nH]ccc5c4)c3)CC2)C1` [Compound 60, 4-[4-[[(1R,6R)-6-(4-chlorophenyl)-3-methyl-cyclohex-3-en-1-yl]methyl]piperazin-1-yl]-N-[3-nitro-4-(tetrahydropyran-4-ylmethylamino)phenyl]sulfonyl-2-(1H-pyrrolo[2,3-b]pyridin-5-yloxy)benzamide], for which the IC50 was more than 4 µM in data set [1] and more than 0.05 µM in data set [2].
For `O=C(NS(=O)(=O)c1ccc(NCC2CCOCC2)c([N+](=O)[O-])c1)c1ccc(N2CCC(CN3CCCCC3c3ccc(Cl)cc3)CC2)cc1Oc1cccc(F)c1` (stereo not drawn) [Compound 62, 4-[4-[[2-(4-chlorophenyl)-1-piperidyl]methyl]-1-piperidyl]-2-(3-fluorophenoxy)-N-[3-nitro-4-(tetrahydropyran-4-ylmethylamino)phenyl]sulfonyl-benzamide], the IC50 in data set [1] was not above 2 µM; in data set [2] it was more than 0.05 µM. Besides, the CC50 at 3 days in data set [3] was 10 to 25 µM. Besides, the figures for the CC50 in data set [4] (setting [6]) and in data set [5] (setting [7]) were 2 to 10 µM and more than 0.2 µM, respectively.
For the compound `CC1=CC[C@@H](CN2CCN(c3ccc(C(=O)NS(=O)(=O)c4ccc(NCC5CCOCC5)c([N+](=O)[O-])c4)c(Oc4cnc5[nH]ccc5c4)c3)CC2)[C@@H](c2ccc(Cl)cc2)C1` [Compound 71, 4-[4-[[(1R,6S)-6-(4-chlorophenyl)-4-methyl-cyclohex-3-en-1-yl]methyl]piperazin-1-yl]-N-[3-nitro-4-(tetrahydropyran-4-ylmethylamino)phenyl]sulfonyl-2-(1H-pyrrolo[2,3-b]pyridin-5-yloxy)benzamide], the IC50 in data set [1] was more than 4 µM; in data set [2] it was 0.01 to 0.05 µM.
Regarding `O=C(NS(=O)(=O)c1ccc(NCC2CCOCC2)c([N+](=O)[O-])c1)c1ccc(N2CCN(C[C@@H]3CC(F)(F)CN3c3ccc(Cl)cc3)CC2)cc1Oc1cnc2[nH]ccc2c1` [Compound 81, 4-[4-[[(2S)-1-(4-chlorophenyl)-4,4-difluoro-pyrrolidin-2-yl]methyl]piperazin-1-yl]-N-[3-nitro-4-(tetrahydropyran-4-ylmethylamino)phenyl]sulfonyl-2-(1H-pyrrolo[2,3-b]pyridin-5-yloxy)benzamide], the CC50 at 3 days in data set [3] lay within 10 to 25 µM. Further, the CC50 in data set [4] (setting [6]) is 2 to 10 µM; in data set [5] (setting [7]), more than 0.2 µM.
